The source of these data is patent publication US20080051416A1, “Novel Compounds” (SMITHKLINE BEECHAM CORPORATION, priority 2004, published 2008).

One data set concerns the target T1, Recombinant human p38α (Homo sapiens, UniProt Q16539).
T1 construct: His; made in house
Description: HTRF Assay: Time-Resolved Fluorescence Resonance Energy Transfer Kinase Assay. The data set is classed as biochemical. The settings on record: TR-FRET; MKK6-activated p38α 100 pM, biotinylated-GST-ATF2 substrate. The procedure: Time-Resolved Fluorescence Resonance Energy Transfer Kinase Assay
Recombinant human p38α was expressed as a His-tagged protein. To activate this protein, 3 μM unactivated p38α was incubated in 200 mM Hepes pH7.4, 625 mM NaCl, 1 mM DTT with 27 nM active MKK6 (Upstate), 1 mM ATP and 10 mM MgCl2. The activity of the MKK6-activated p38α was assessed using a time-resolved fluorescence resonance energy transfer (TR-FRET) assay.
Biotinylated-GST-ATF2 (residues 19-96, 400 nM final), ATP ([…] final) and MgCl2 (5 mM final) in assay buffer (40 mM HEPES pH 7.4, 1 mM DTT) were added to wells containing […] of various concentrations of compound or DMSO vehicle (3% final) in NUNC 384 well black plate. The reaction was initiated by the addition of MKK6-activated p38 (100 pM final) to give a total volume of 30 μl. Alternatively, various concentrations of compound were incubated with activated p38 for up to 90 min, followed by initiation with the addition of ATF2, ATP and MgCl2. The reaction was incubated for 120 minutes at room temperature, then terminated by the addition of 15 μl of 100 mM EDTA pH 7.4. Detection reagent (15 μl) in buffer (100 mM HEPES pH 7.4, 150 mM NaCl, 0.1% w/v BSA, 1 mM DTT) containing antiphosphothreonine-ATF2-71 polyclonal antibody (Cell Signalling Technology, Beverly Mass., USA) labelled with W-1024 europium chelate (Wallac OY, Turku, Finland), and APC-labelled streptavidin (Prozyme, San Leandro, Calif., USA) was added and the reaction was further incubated for 60 minutes at room temperature. The degree of phosphorylation of GST-ATF2 was measured using a Packard Discovery plate reader (Perkin-Elmer Life Sciences, Pangbourne, UK) as a ratio of specific 665 nm energy transfer signal to reference europium 620 nm signal. Differences in IC50 with or without preincubation of enzyme with compound was interpreted as time-dependence.
(TR-FRET usually uses a lanthanide donor and a delayed reading to cut background.)

A further data set deals with p38 (Homo sapiens, UniProt Q16539). Description: Fluorescence Anisotropy Kinase Binding Assay. The note with it: p38 enzyme 12 nM, fluorescent ligand 5 nM. How it is done:
Fluorescence Anisotropy Kinase Binding Assay
The concentration of kinase enzyme should preferably be ≧1×Kf. The concentration of fluorescent ligand required will depend on the instrumentation used, and the fluorescent and physicochemical properties. The concentration used must be lower than the concentration of kinase enzyme, and preferably less than half the kinase enzyme concentration. A typical protocol is:
All components dissolved in Buffer of final composition 62.5 mM HEPES, pH 7.5, 1.25 mM CHAPS, 1.25 mM DTT, 12.5 mM MgCl2 3.3% DMSO.
p38 Enzyme concentration: 12 nM
Fluorescent ligand concentration: 5 nM
Test compound concentration: 0.1 nM-100 uM
Components incubated in 30 ul final volume in NUNC 384 well black microtitre plate until equilibrium reached (5-30 mins)
Fluorescence anisotropy read in LJL Acquest.
Definitions: Ki=dissociation constant for inhibitor binding
• Kf=dissociation constant for fluorescent ligand binding
The fluorescent ligand is the following compound: [drawing 22] which is derived from 5-[2-(4-aminomethylphenyl)-5-pyridin-4-yl-1H-imidazol-4-yl]-2-chlorophenol and rhodamine green. Results

Data set [1] relates to TGF-β-induced increases in fibronectin and thrombospondin. The note with it: literature, Laping et al., 2002; cited from earlier work.

T1 sequence (Q16539 whole entry): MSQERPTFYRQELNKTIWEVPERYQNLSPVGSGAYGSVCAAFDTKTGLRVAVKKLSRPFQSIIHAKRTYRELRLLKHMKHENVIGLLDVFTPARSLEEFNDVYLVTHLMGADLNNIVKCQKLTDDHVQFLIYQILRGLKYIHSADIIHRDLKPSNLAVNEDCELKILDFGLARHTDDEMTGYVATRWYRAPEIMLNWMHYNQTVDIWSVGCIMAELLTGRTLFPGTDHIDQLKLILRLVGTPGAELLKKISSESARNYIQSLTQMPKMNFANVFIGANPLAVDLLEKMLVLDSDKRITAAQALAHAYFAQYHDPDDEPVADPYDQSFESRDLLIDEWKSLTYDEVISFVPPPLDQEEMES
Sequence of p38 (Q16539 whole entry): as above

As to `Cc1ccc(C(=O)NCCO)cc1-c1ccc(C(=O)NCC(C)(C)C)cc1C(=O)O` [Example 86, 4-{[(2,2-dimethylpropyl)amino]carbonyl}-5′-{[(2-hydroxyethyl)amino]carbonyl}-2′-methyl-2-biphenylcarboxylic acid], the IC50 – broadly, the concentration that inhibits the measured activity by half – on Recombinant human p38α is more than 25.1 µM; on p38, more than 15.8 µM.
For the compound `Cc1c(F)cc(C(=O)NCC2CC2)cc1-c1ccc(C(=O)NCC(C)(C)C)cc1C(=O)Nc1nccs1` [Example 15, N^3′-(cyclopropylmethyl)-N^4-(2,2-dimethylpropyl)-5′-fluoro-6′-methyl-N^2-1,3-thiazol-2-yl-2,3′,4-biphenyltricarboxamide], the melting point (as a rule, the temperature of the solid-liquid transition) fell in the range of 179 to 183 °C.
Consider `Cc1c(F)cc(C(=O)N[C@@H](C)C(C)C)cc1-c1ccc(C(=O)NCC(C)(C)C)cc1C(=O)Nc1nccs1` [Example 12, N^3′-[(1S)-1,2-dimethylpropyl]-N^4-(2,2-dimethylpropyl)-5′-fluoro-6′-methyl-N^2-1,3-thiazol-2-yl-2,3′,4-biphenyltricarboxamide], for which the melting point lay within 234 to 239 °C. In addition, at Recombinant human p38α, the IC50 was more than 1.58 µM. Moreover, the IC50 on p38 was more than 1.58 µM.
Turning to `Cc1c(F)cc(C(=O)N[C@H](C)CO)cc1-c1ccc(C(=O)NCC(C)(C)C)cc1C(N)=O` [Example 75, N^4-(2,2-dimethylpropyl)-5′-fluoro-N^3′-[(1R)-2-hydroxy-1-methylethyl]-6′-methyl-2,3′,4-biphenyltricarboxamide], the IC50 is more than 1.58 µM at Recombinant human p38α and more than 15.8 µM on p38.
As for `Cc1c(F)cc(C(=O)NCC(C)C)cc1-c1ccc(C(=O)NCC(C)(C)C)cc1C(=O)Nc1nccs1` [Example 14, N^4-(2,2-dimethylpropyl)-5′-fluoro-6′-methyl-N^3′-(2-methylpropyl)-N^2-1,3-thiazol-2-yl-2,3′,4-biphenyltricarboxamide], the melting point is > 194 °C (dec.).
Take `Cc1c(F)cc(C(=O)N[C@H](C)C(C)(C)C)cc1-c1ccc(C(=O)NCC(C)(C)C)cc1C(=O)Nc1nccs1` [Example 10, N^4-(2,2-dimethylpropyl)-5′-fluoro-6′-methyl-N^2-1,3-thiazol-2-yl-N^3′-[(1R)-1,2,2-trimethylpropyl]-2,3′,4-biphenyltricarboxamide]: the melting point was > 125 °C (dec.). The IC50 on Recombinant human p38α is more than 1.58 µM. On p38, this compound showed an IC50 of more than 1.58 µM.
`Cc1c(F)cc(C(=O)N[C@@H](C)C(C)(C)C)cc1-c1ccc(C(=O)NCC(C)(C)C)cc1C(=O)Nc1nccs1` [Example 25, N^4-(2,2-dimethylpropyl)-5′-fluoro-6′-methyl-N^2-1,3-thiazol-2-yl-N^3′-[(1S)-1,2,2-trimethylpropyl]-2,3′,4-biphenyltricarboxamide]: the melting point is 160 to 165 °C. In addition, on Recombinant human p38α, the IC50 was more than 1.58 µM. At p38, this compound had an IC50 of more than 1.58 µM.
As for `Cc1c(F)cc(C(=O)N[C@H](C)C(C)C)cc1-c1ccc(C(=O)NCC(C)(C)C)cc1C(=O)Nc1nccs1` [Example 13, N^3′-[(1R)-1,2-dimethylpropyl]-N4-(2,2-dimethylpropyl)-5′-fluoro-6′-methyl-N^2-1,3-thiazol-2-yl-2,3′,4-biphenyltricarboxamide], the melting point lay in the range of 240 to 244 °C. Besides, the IC50 at Recombinant human p38α is more than 1.58 µM. The compound also had an IC50 on p38 of more than 1.58 µM.
At p38, `COC(=O)c1cc(C(=O)NCC(C)(C)C)ccc1-c1cc(C(=O)NCCO)ccc1C` [Example 78, methyl 4-{[(2,2-dimethylpropyl)amino]carbonyl}-5′-{[(2-hydroxyethyl)amino]carbonyl}-2′-methyl-2-biphenylcarboxylate] gave a half-maximal inhibitory concentration (IC50) of more than 15.8 µM.
As to `Cc1c(F)cc(C(=O)NCCC(C)C)cc1-c1ccc(C(=O)NCC(C)(C)C)cc1C(=O)Nc1nccs1` [Example 16, N^4-(2,2-dimethylpropyl)-5′-fluoro-6′-methyl-N^3′-(3-methylbutyl)-N^2-1,3-thiazol-2-yl-2,3′,4-biphenyltricarboxamide], the melting point was in the range of 159 to 164 °C.
Take `COc1nccc(-c2c(-c3ccc(F)cc3)ncn2C2CCNCC2)n1` [SB-242235]: the “inhibition of TGF-β-induced increases in fibronectin and thrombospondin” value in data set [1] was “inhibited”.
